From US20150198597A1, “Method for monitoring PARP activity in cells by PARP activation” (Stichting Het Nederlands Kanker Instituut, priority 2012, published 2015)

Tested on: PARP
Conditions: PBMCs; H2O2 at 0, 12.5, 50, 200 and 800 μM; treated and maintained on ice (0-4° Celsius) for 60 minutes; FIG. 3B
Procedure: Cells were treated on ice (at 0-4° Celsius) and cells were maintained on ice (at 0-4° Celsius) for 60 minutes. Cells were immediately lysed thereafter and PAR levels were measured by using the Trevigen® PARP Pharmacodynamic assay II. The PAR levels (y-axis) are plotted against the H2O2 concentration (x-axis).
The assay was used to quantify the amount of PAR in peripheral blood mononuclear cells (PBMC).
Peripheral Blood Mononuclear Cells (PBMCs) were prepared by drawing 8 ml blood from a subject in a BD vacutainer CPT-citrate tube (RT) at the clinic. Invert the tubes three times to mix the anti-coagulant (1 ml) with the blood and keep the tube at room temperature (RT). Centrifuge for 25 minutes at 1500×g at RT, and invert the tubes three times. Pour the upper layer into a 50 ml Falcon tube on ice and incubate on ice for 5 minutes. Adjust the total volume to 50 ml with ice-cold PBS and centrifuge 10 minutes at 330×g at 4° Celsius. Decant the supernatant and place the tube inverted on filter paper for 2 seconds. Re-suspend the pellet in 10 ml ice-cold PBS. Count the PBMCs with a hema-cytometer and centrifuge 10 minutes at 330×g at 4° Celsius. Re-suspend the pellet at 2×10exp6 PBMC/500 μl in PBS and transfer to a pre-chilled 2.0 ml tube on ice.
For example, cells are suspended at 2×10E6 PBMC/500 μl culture PBS. […]

## OO [H2O2, hydrogen peroxide]
  PAR levels: Higher PAR levels were found with increasing H2O2 treatment concentration
